In publication PMC12888920, “MMP-9 regulates disulphide isomerase activity of TGM2 to enhance fusion glycoprotein-mediated syncytium formation of respiratory syncytial virus” (Protein & Cell, 2025):

Test system: RSV A2
Test: Suppression of RSV progeny viral titer (FFA, 72 hpi) in HEp-2 cells
Format: cell-based, Respiratory syncytial virus
Conditions: 0.2 and 1 MOI
Method: Figure 2. MMP-9 regulates late-stage RSV infection. (A) Time-of-addition assay design (left). HEp-2 cells were treated with metalloproteinase inhibitors under three regimens: “Full-time” (2 h pretreatment + continuous exposure), “Entry” (viral attachment phase only), or “Post-entry” (≥ 2 hpi). Cells infected with RSV A2 (MOI = 1) were analyzed for cytopathic effect inhibition at 72 hpi versus DMSO controls. mean ± SD, n = 3. (B) No inhibition of RSV F/G/SH pseudovirus entry by doxycycline hyclate or JNJ0966 (5 µmol/L). mean ± SD, n = 3. (C) Temporal sensitivity analysis (left). Viral RNA levels (22 hpi) in HEp-2 cells treated with 5 µmol/L inhibitors at defined intervals: pre-infection (−2–0 h), entry (0–2 h), or post-entry (2–16 h) phases (right). mean ± SD, n = 3. (D) Multicycle replication kinetics. […] (F) Dose-dependent suppression of RSV progeny (MOI = 0.2/1) by inhibitors (72 hpi), quantified by FFA. mean ± SD, n = 3. […]
To evaluate the effects of the compounds on RSV assembly and release, we treated HEp-2 cells with the inhibitors at 10 hpi (the onset of virion assembly) or 16 hpi (the onset of virion release) following RSV infection ([Malhi et al., 2021]). Supernatants were collected at 22 hpi for viral titer quantification. […] Furthermore, at 72 hpi, viral titers were quantified following infection with varying doses of RSV (0.2 and 1 MOI).

Row | Compound | inhibition of RSV replication (viral titers)
1 | COc1ccccc1Nc1nc(-c2sc(NC(C)=O)nc2C)cs1 [JNJ0966] | dose-dependent inhibition
2 | Doxycycline hyclate | dose-dependent inhibition
